How the values were obtained:
[1] = molecular target: bovine liver glyoxalase II (Bos taurus, UniProt Q3B7M2); experiment: Substrate and inhibition studies with bovine liver glyoxalase II; details: for Vm (rel.): relative to Vm for S-D-lactoylglutathione
Experimental: The standard errors for Vm and Km were obtained by analysis of the initial rate data using the HYPER program of Cleland.
^a HEPES buffer (100 mM, pH 7.4), 25° C.
^b Listed values are relative to Vm for SD-lactoylglutathione.
^c Inhibition constants obtained from using the enediol analogs as

[2] = test system: Human Leukemia 60 (HL60) cells; experiment: Growth inhibition and kill of human leukemia 60 cells; assay type: cell-based; details: HL60, 72 hr. incubation; for IC50: Homo sapiens, HL-60, read-out: GI (concentration for 50% cell growth inhibition)
Experimental: The observation that compounds 2 and 6(c) inhibit tumor cell growth, but were not strongly cytotoxic to tumor cells at the concentrations tested, prompted the synthesis of diethyl esters of compounds 6(a), 6(b), and 6(c). These derivatives were then tested with human leukemia cells (HL60 cells) grown in RPMI/fetal calf serum medium at 37° C.
^c Concentration for 50% cell kill.

[3] = of substituent R; cited from earlier work
[4] = test system: human erythrocytes; experiment: Erythrocyte uptake of 35S-labeled compounds
Experimental: In order to test the ability of human erythrocytes to take up the above enediol and its ethyl ester derivative, suspensions of washed human erythrocytes were separately incubated with [^35 S] GSH, [^35 S]S-(N-hydroxy N-methylcarbamoyl) glutathione, and with [^35 S] S-(N-hydroxy N-methylcarbamoyl) glutathione[glycyl]-O-ethyl ester. The tests were conducted with 50:50 (v:v) erythrocytes in PBS buffer at 37° C. in the presence of 8.5 mM extracellular [^35 S] labeled compounds.

[5] = HEPES buffer (100 mM, pH 7.4), 25° C.

## N[C@@H](CCC(=O)N[C@@H](CSC(=O)N(O)c1ccc(Cl)cc1)C(=O)NCC(=O)O)C(=O)O [Compound 6b, S-(N-Hydroxy-N-4-chlorophenylcarbamoyl) glutathione]
[1]
  Ki: 3.4 ± 0.8 µM
[1]; [5]
  Vm (rel.): (1.5 ± 0.3) × 10^-5
[2]
  LC50 (concentration for 50% cell kill): > 1000 µM
  TGI (concentration for total cell growth inhibition): > 1000 µM
  IC50: ~100 µM
[3]
  π (Hansch hydrophobicity constant): 3.04

## CCOC(=O)CNC(=O)[C@H](CSC(=O)N(C)O)NC(=O)CC[C@H](N)C(=O)O [[^35 S] .box-solid., [^35 S] S-(N-Hydroxy N-Methyl Carbamoyl) Glutathione [Glycyl]-O-Ethyl Ester]
[4]
  diffusion rate into erythrocytes relative to [35S] 2: ~ 2 fold
[4]; 0 h
  Extracellular Total 35S species: 8.54 mM
  Extracellular [35S] S-(N-hydroxy N-methylcarbamoyl) glutathione: 1.27 mM
  Extracellular [35S] S-(N-hydroxy N-methylcarbamoyl) glutathione glycyl-O-ethyl ester: 7.22 mM
[4]; 0 h, 8.5 mM extracellular, 37° C.
  Intracellular Total 35S species: ~ 0.01 mM
[4]; 0 h, listed as [^35 S] 2(Et)
  Extracellular [35S] S-(N-hydroxy N-methylcarbamoyl) glutathione: 1.3 mM
[4]; 6 h
  Extracellular Total 35S species: 8.60 mM
  Extracellular [35S] S-(N-hydroxy N-methylcarbamoyl) glutathione: 1.27 mM
  Extracellular [35S] S-(N-hydroxy N-methylcarbamoyl) glutathione glycyl-O-ethyl ester: 7.17 mM
  Intracellular Total 35S species: 0.05 mM
  Intracellular [35S] S-(N-hydroxy N-methylcarbamoyl) glutathione: ~ 0.01 mM
  Intracellular [35S] S-(N-hydroxy N-methylcarbamoyl) glutathione glycyl-O-ethyl ester: ~ 0.01 mM
[4]; 12 h
  Extracellular Total 35S species: 8.62 mM
  Extracellular [35S] S-(N-hydroxy N-methylcarbamoyl) glutathione: 1.42 mM
  Extracellular [35S] S-(N-hydroxy N-methylcarbamoyl) glutathione glycyl-O-ethyl ester: 7.02 mM
  Intracellular Total 35S species: 0.07 mM
  Intracellular [35S] S-(N-hydroxy N-methylcarbamoyl) glutathione: 0.02 mM
  Intracellular [35S] S-(N-hydroxy N-methylcarbamoyl) glutathione glycyl-O-ethyl ester: 0.03 mM
[4]; 24 h
  Extracellular Total 35S species: 8.49 mM
  Extracellular [35S] S-(N-hydroxy N-methylcarbamoyl) glutathione: 1.65 mM
  Extracellular [35S] S-(N-hydroxy N-methylcarbamoyl) glutathione glycyl-O-ethyl ester: 6.62 mM
  Intracellular Total 35S species: 0.20 mM
  Intracellular [35S] S-(N-hydroxy N-methylcarbamoyl) glutathione: 0.05 mM
  Intracellular [35S] S-(N-hydroxy N-methylcarbamoyl) glutathione glycyl-O-ethyl ester: 0.12 mM
[4]; 36 h
  Extracellular Total 35S species: 8.09 mM
  Extracellular [35S] S-(N-hydroxy N-methylcarbamoyl) glutathione: 1.83 mM
  Extracellular [35S] S-(N-hydroxy N-methylcarbamoyl) glutathione glycyl-O-ethyl ester: 6.01 mM
  Intracellular Total 35S species: 0.45 mM
  Intracellular [35S] S-(N-hydroxy N-methylcarbamoyl) glutathione: 0.14 mM
  Intracellular [35S] S-(N-hydroxy N-methylcarbamoyl) glutathione glycyl-O-ethyl ester: 0.28 mM
[4]; 48 h
  Extracellular Total 35S species: 7.90 mM
  Extracellular [35S] S-(N-hydroxy N-methylcarbamoyl) glutathione: 1.89 mM
  Extracellular [35S] S-(N-hydroxy N-methylcarbamoyl) glutathione glycyl-O-ethyl ester: 5.70 mM
  Intracellular Total 35S species: 0.67 mM
  Intracellular [35S] S-(N-hydroxy N-methylcarbamoyl) glutathione: 0.24 mM
  Intracellular [35S] S-(N-hydroxy N-methylcarbamoyl) glutathione glycyl-O-ethyl ester: 0.39 mM
  final intracellular [35S] 2 relative to that expected from import of contaminating [35S] 2: about 3 fold
[4]; 48 h, listed as [^35 S] 2(Et)
  Extracellular [35S] S-(N-hydroxy N-methylcarbamoyl) glutathione: 1.9 mM

## N[C@@H](CCC(=O)N[C@@H](CSC(=O)N(O)c1ccccc1)C(=O)NCC(=O)O)C(=O)O [Compound 6a, S-(N-Hydroxy N-Phenylcarbamoyl) Glutathione]
[1]
  Ki: 11 ± 1.2 µM
[1]; as substrate, HEPES buffer (100 mM, pH 7.4), 25° C.
  Km: 13 ± 2 µM
[1]; [5]
  Vm (rel.): (0.46 ± 0.01) × 10^-5
[2]
  LC50 (concentration for 50% cell kill): > 1000 µM
  TGI (concentration for total cell growth inhibition): > 1000 µM
  IC50: ~100 µM
[3]
  π (Hansch hydrophobicity constant): 2.13

— patent publication US5616563A, “Glutathione N-hydroxycarbamoyl thioesters and method of inhibiting neoplastic growth” (University of Maryland Baltimore Campus, priority 1994, dated 1997)
